Values of other authors, collected in US9168226B1, “Injectable particle” (priority 2015, dated 2015).
In brackets after ≈: the same amount, converted by molar mass. Like-named read-outs stand apart in the source and are kept apart here.

For Cc1nc(Nc2ncc(C(=O)Nc3c(C)cccc3Cl)s2)cc(N2CCN(CCO)CC2)n1 [dasatinib, Dasatinib], the aqueous solubility (pH 2.6) is given as 18400 µg/mL (≈ 37.7 mM) and the aqueous solubility (pH 6.0) is given as 8 µg/mL (≈ 0.0164 mM).
